According to a melting point compilation (Tetko et al.; mined from patent text by program, amines drawn as free bases though some values may be those of a salt):

Compound `CCn1cc(C(=O)O)c(=O)c2cc(F)c(N3CCN(S(=O)(=O)c4ccc(NC(C)=O)cc4)CC3)c(F)c21` has a melting point of 276 to 277 °C. Work on `COC(=O)c1c(Cl)cc(Cl)cc1NC(=O)CSc1ccc(NC(=S)NCc2ccccc2)cc1` yielded a melting point of 152 to 155 °C. For `Cc1nc(C(=O)NCCN(C)C)c2n1-c1ccc(Cl)cc1C(c1ccccc1F)=NC2`, the melting point was 209 to 211 °C. Compound `CNC(=O)c1cc2nc(C(F)(F)F)ccc2c(C)c1NC(=O)c1cc(C(F)(F)F)nn1-c1ncccc1Cl` has a melting point of 227 to 230 °C. Work on `CC1(C)OC(=O)c2c(cccc2OS(=O)(=O)C(F)(F)F)O1` yielded a melting point of 115 °C. For `Cn1c(COc2ccc(CC3SC(=O)NC3=O)cc2)nc2ccc(Oc3ccc(NC(=S)Nc4cccc5ccccc45)cc3)cc21` (stereo not drawn), the melting point was 186 to 188 °C. `COc1ccc(CSc2ncn(Cc3cc4c(cc3Cl)OCO4)c2C(=O)O)cc1` gave a melting point of 195 °C. `Cc1cc(C)c(-c2c(O)c(Cl)c(-c3ccc(Cl)cc3)oc2=O)c(C)c1` showed a melting point of 229 to 231 °C. In the case of `COCc1cnc2c([N+](=O)[O-])ccc(C)c2c1Cl`, the melting point is reported as 120 to 124 °C. For `CCC(C)(C)c1cc(-c2cccc(CC3SC(N4CCCC4)=NC3=O)c2)ccc1O` (stereo not drawn), the melting point was 216 to 219 °C. In the case of `Cc1ccc(-n2ncc(C(=O)O)c2C(N)=O)cc1C`, the melting point is reported as 231 to 232 °C. Compound `CCOC(=O)c1nccn1CCCc1ccc(OCc2coc(/C=C/c3ccccc3)n2)cc1` has a melting point of 123 to 124 °C. `CN(Cc1cccc2c1C(=O)N(C1CCC(=O)NC1=O)C2=O)C(=O)Nc1ccc2ccccc2c1` (stereo not drawn) gave a melting point of over 260 °C. In the case of `O=C(O)CCCCCOc1ccccc1C(=O)c1ccccc1O`, the melting point is reported as 89 to 91 °C. Work on `CCN(CC)C(=O)Oc1c2c(nn1-c1ccc(F)cc1)CCc1cc(F)ccc1-2` yielded a melting point of 141 to 142 °C. For `CCNc1ncnc2nc(-c3ccncc3)[nH]c12`, the melting point was 308 to 310 °C. For `COc1ccc(C=C2OC(=O)c3ccccc32)cc1[N+](=O)[O-]`, the melting point was 173 to 181 °C. `CCc1ccc(CCOc2ccc(CC(N)C(=O)O)cc2)nc1` (stereo not drawn) showed a melting point of 214 to 221 °C. Compound `CC(C)CC(=O)Nc1cccc(-c2ccnc3c(-c4ccc(-c5ccccc5)cc4)cnn23)c1` has a melting point of 157 to 160 °C. Work on `CCOC(=O)C1=C(O)C(C)(CC)CNC1=O` (stereo not drawn) yielded a melting point of 196 to 197 °C. Work on `CCOC(=O)C(C)(C)Oc1ccc(-c2ccc(CCNC(C)=O)cc2)cc1` yielded a melting point of under 20 °C. Work on `COc1cc2c(cc1OC)CC(=O)N(CCCI)C=C2` yielded a melting point of 132 to 134 °C. Work on `CS(=O)(=O)c1cccc(C/C=C(/F)CN2C(=O)c3ccccc3C2=O)c1` yielded a melting point of 124 to 126 °C. Compound `Nc1n[nH]c(SCCCO)n1` has a melting point of 136 to 137 °C. With `CC1(O)CCC(=O)N(O)C1` (stereo not drawn) the melting point was 98 to 100 °C. `O=C(O)COc1ccc2c(c1)CC(NS(=O)(=O)c1ccc(Cl)cc1)C2` (stereo not drawn) gave a melting point of 170 to 172 °C. `COC(=O)Cc1ccc(C(=O)c2ccc(OC)cc2)n1C` gave a melting point of 104 to 105 °C. In the case of `Cc1ccc2cc(NS(=O)(=O)c3cc(Cl)ccc3Cl)ccc2n1`, the melting point is reported as 125 °C. `OCCOc1ccc(-c2nc(-c3ccc(OCCO)cc3O)nc(-c3ccc(OCCO)cc3O)n2)c(O)c1` gave a melting point of 195 °C. With `Cc1cc(-c2cccc(S(F)(F)(F)(F)F)c2)c(S(C)(=O)=O)cc1C(=O)NC(=N)N` the melting point was 169 to 175 °C. `CCCCCCCCCCCCCCCC(=O)C(O)C(=O)C(O)C(=O)CCCCCCCCCCCCCCC` (stereo not drawn) gave a melting point of 80 to 81 °C. With `C=NOC(c1ccc(C(=O)O)cc1)c1c(C)nn(C)c1Oc1ccccc1` (stereo not drawn) the melting point was 183 °C. Work on `O=C(O)C(Cc1ccccc1)Oc1ccc(-c2ccc(-c3c(Cc4ccccc4)oc4cccnc34)cc2)cc1` (stereo not drawn) yielded a melting point of 85 to 88 °C. In the case of `N#CC1CN1C(=O)NC(=O)c1ccccc1` (stereo not drawn), the melting point is reported as 144 to 146 °C. `COc1cc(-c2cn3cccnc3n2)ccc1O` gave a melting point of 230 to 233 °C. `Cc1oc(-c2ccccc2)nc1CCOc1ccc(CC(C(N)=O)C(=O)O)cc1` (stereo not drawn) showed a melting point of 138 °C. With `CNC(=O)c1cccc(-c2ccc(OC(C)C(O)CCc3cccnc3)cc2)c1` (stereo not drawn) the melting point was 54 to 55 °C. For `CC(=O)c1cc(I)cc(S(N)(=O)=O)c1`, the melting point was 188 to 189 °C. For `CCOC(=O)CSC(C)=NO`, the melting point was 90 to 92 °C. With `OC(c1ccccc1)c1cc2ccccc2cc1C(O)c1ccccc1` (stereo not drawn) the melting point was 145 °C. `CC1(C)OC(=O)C(=Cc2ccc(Br)s2)C1=O` showed a melting point of 173 to 175 °C. `Nc1nc(N)c2c(I)nn(C3CC(O)C(CO)O3)c2n1` (stereo not drawn) showed a melting point of 154 °C. For `N#Cc1cc(C(F)(F)F)cc(Cl)c1F`, the melting point was 150 to 152 °C. For `O=c1c2c(CC3CCOCC3)n[nH]c2c2cccnc2n1-c1ccccc1`, the melting point was 228 to 234 °C. For `Nc1ncc(-c2ccccc2F)nc1C(=O)Nc1cccnc1`, the melting point was 221 to 225 °C. Work on `Oc1ccc(-c2nc(-c3ccc(F)cc3)c(-c3ccncc3)[nH]2)cc1` yielded a melting point of 214 to 215 °C. Compound `Cc1ccccc1-c1nc(-c2ccccc2Cl)n[nH]1` has a melting point of 109 to 111 °C. Compound `CC(C)(C)OC(=O)C(CCC(N)=O)N1Cc2c(OCc3ccc(CN4C5CCC4COC5)cc3)cccc2C1=O` (stereo not drawn) has a melting point of 243 to 245 °C. In the case of `CC(C)(C1CC1)C(O)(Cn1cncn1)c1ccc(Cl)cc1` (stereo not drawn), the melting point is reported as 88 to 90 °C. For `CN(C)C/C=C\c1ncccc1OCCO`, the melting point was 71 °C. `Cc1nn(C)c2c(=O)n(C)c(=O)n(C)c12` gave a melting point of 210 to 211 °C. `COC(=O)c1ccc2c(=O)c(Cc3ccccc3)coc2c1` gave a melting point of 98 to 100 °C. In the case of `CS(=O)(=O)NC(=O)N[C@H]1CCN(c2ccc3c(NC(=O)CC4CCCCC4)c(Cl)ccc3n2)C1`, the melting point is reported as 303 to 307 °C. `CS(=O)(=O)N1CCC(C2c3ccccc3C=Cc3ccccc32)CC1` showed a melting point of 260 to 268 °C. `O=C1C(=O)c2ccccc2C2=C1SCC1(CCN(C(=O)Cc3ccc(Cl)cc3)CC1)O2` gave a melting point of 120 to 125 °C. `CCc1nc2c(cnn2CC)c(NC2CCOCC2)c1CNC(=O)c1cc(C)cc(C(=O)NCc2ccc(OC)c(Br)c2)c1` gave a melting point of 123 to 126 °C. Work on `O=C(O)c1ccc(COCc2csc3nc(C(=O)NCc4ccc(F)c(Cl)c4)[nH]c(=O)c23)cc1` yielded a melting point of 228 to 230 °C. Work on `CCCC(=O)Nc1ccn(C2OC(CO)C(O)C2O)c(=O)n1` (stereo not drawn) yielded a melting point of 108 to 110 °C. Compound `CCC(=O)C(=Cc1cccc(C#N)c1)C(=O)CC` has a melting point of 51 to 52 °C. In the case of `CC(C)Cn1c(=O)n(C)c(=O)c2c(Br)c(C(=O)c3nc4ccccc4n3C)sc21`, the melting point is reported as 258 °C. In the case of `O=C(NC1C(=O)N(CC23CC4CC(CC(C4)C2)C3)c2ccccc2N(c2ccccc2)C1=O)Oc1ccccc1` (stereo not drawn), the melting point is reported as 205 to 207 °C. With `Cc1oc(-c2ccccc2)nc1COc1ccccc1COc1ccc(CC(=O)O)cc1` the melting point was 173 to 174 °C. Work on `COCCn1cc(C(=O)NCc2ccc(Cl)cc2)c(=O)c2cc(CN(C)C[C@@H](O)c3ccco3)sc21` yielded a melting point of 121 to 122 °C. For `FC(F)(F)c1ccc2nccc(N3CCN(C(=S)NCc4ccccc4)CC3)c2c1`, the melting point was 158 to 159 °C. For `OCC1NCCc2occc21` (stereo not drawn), the melting point was 66 to 69 °C. For `CNc1c(C#N)c(C(F)(F)F)nn1-c1c(Cl)cc(C(F)(F)F)cc1Cl`, the melting point was 200 to 202 °C. `O=S1(=O)N=C(NC23CC4CC(CC(C4)C2)C3)Nc2cc(Cl)sc21` gave a melting point of 339 to 340 °C. `C[Si](C)(c1ccccc1)c1ccccc1CO` gave a melting point of 53 to 54 °C. For `Cc1ccc(-c2nc3ccc(CN4CCN(C)CC4)cc3[nH]2)cc1C#Cc1cnc2cccnn12`, the melting point was 114 to 115 °C. `Cc1nc2cc(NC(=O)c3ccccc3O)ccc2o1` showed a melting point of 202 to 206 °C. In the case of `CCOC(=O)c1ccc(N(C(=O)OCC)C(=O)c2ccc(C(=O)C(C)(C)C)cc2)cc1`, the melting point is reported as 84 to 86 °C. With `CN1C(=O)N(C)C(O)(c2ccccc2)c2cc(Cl)ccc21` (stereo not drawn) the melting point was 174 to 176 °C. In the case of `Cc1ccc(C)n1-c1ccc(/C=C/C(=O)N(C)O)cc1`, the melting point is reported as 143 to 145 °C. With `O=C(Nc1ccc2nc(CN3CCCC3)ccc2c1)c1ccc(-c2ccccc2)cc1` the melting point was 181 to 183 °C. For `CCCCCCCCCCCCCCOc1ccc(CN(C(=O)NC)c2cccc(CBr)c2)cc1`, the melting point was 70 to 73 °C. Work on `O=Cc1cc(Br)c(Cl)s1` yielded a melting point of 61 to 62 °C. `Cc1cc(C)n(CC2CC3c4cccc5[nH]cc(c45)CC3N(C)C2)n1` (stereo not drawn) showed a melting point of 187 to 190 °C. Work on `CCCCCCCCC(=O)Nc1cc([N+](=O)[O-])ccc1O` yielded a melting point of 140 to 141 °C. In the case of `CCOc1nc(NCc2ccncc2)nc(Nc2ccc3cc[nH]c3c2)n1`, the melting point is reported as 198 to 200 °C. Work on `COc1cc(CC(=O)CCNCCOc2ccc(C(=O)O)cc2OC)ccc1NC(=O)Nc1ccccc1F` yielded a melting point of 105 to 110 °C. Compound `CC12C=CC(=O)C=C1CCC1C2C(=O)CC2(C)C(C(=O)CO)CCC12` (stereo not drawn) has a melting point of 203 to 206 °C. For `CC(=O)Nc1c(I)c(C(=O)OCOC(=O)C(C)(C)C)c(I)c(N(C)C(C)=O)c1I`, the melting point was 232 to 234 °C. In the case of `O=C(C(=O)N(CCO)CCO)c1ccc(OCCOc2ccc3ccccc3c2)cc1`, the melting point is reported as 128 to 133 °C. For `COc1cc(C(=O)N2Cc3ccccc3Cc3ccccc32)ccc1NC(=O)c1ccccc1C`, the melting point was 209 to 210 °C. `CCCCCCOC(=O)C1=C(C)NN=C(c2ccccc2)C1c1cccc(Cl)c1` (stereo not drawn) showed a melting point of 103 °C. `CCn1nc(C(=O)OC)cc1C` gave a melting point of 165 to 168 °C. Compound `CCc1nc2c(-c3cc4c(c(Br)c3C)OCC4)ncnc2n1C(C1CC1)C1CC1` has a melting point of 179 to 180 °C. With `COc1ccc(CCN(C)C)c2nn[nH]c12` the melting point was 176 to 180 °C. For `CCC(CC)CC(C)(NC(CO)c1ccccc1)C(=O)O` (stereo not drawn), the melting point was 149 °C. Work on `CC(C)c1cccc(C(C)C)c1NC(=O)NC1CC(C)(C)c2ccccc2C1(C)C` (stereo not drawn) yielded a melting point of 180 to 181 °C. In the case of `COc1cc(N)c(Cl)cc1C(=O)NCC1CCN(CCCCCC(=O)c2ccccc2)CC1`, the melting point is reported as 138 to 141 °C. With `N#Cc1ccc([C@@H]2CN(Cc3ccccc3)C[C@@]23NC(=O)N(c2cc(Cl)cc(Cl)c2)C3=O)cc1` (relative stereo) the melting point was 200 °C. For `CCC1Cc2c(C)c(OCC(=O)O)c(C)c(C)c2C1=O` (stereo not drawn), the melting point was 136 to 137 °C. For `CN1CCN(Cc2ccccc2)C(c2ccccc2)C1` (stereo not drawn), the melting point was 58 to 60 °C. In the case of `O=C(NC(c1ccccc1)c1ccccc1)[C@H]1Cc2c([nH]c3ccccc23)CN1`, the melting point is reported as 191 to 196 °C. With `CCOC(=O)c1cnn2c1c(OCC)nc1c(C)nn(C)c12` the melting point was 116 to 118 °C. In the case of `COc1cccc(OC)c1C(=O)C=Cc1c(Cl)cccc1Cl`, the melting point is reported as 127 to 128 °C. For `O=[N+]([O-])c1cccnc1N1CCc2ccccc2CC1`, the melting point was 129 to 136 °C.
